Test results from patent US20100016435A1, “HYBRID MOLECULES HAVING MIXED VITAMIN D RECEPTOR AGONISM AND HISTONE DEACETYLASE INHIBITORY PROPERTIES” (McGill University, priority 2006, published 2010).

Tests used:
SCC4 cells [1] = assay: Acidic β-galactosidase activity (marker of autophagy), X-Gal staining and 620 nm measurement; format: cell-based, human; details: qualitative, FIG. 10A
Text: FIG. 10 is an illustration of the effects of 1, 3, 1+3 and 6 on the induction of acidic β-galactosidase activity, a marker of autophagy (A); FIG. 10 is an illustration of the effects 1, 3, 1+3 and 6 on the levels of β-galactosidase expression as obtained by measuring the indigo cleavage product of X-Gal at 620 nm (B).
Since it was observed that treatment with 1 could enhance cell death by autophagy (ref. 26), the effects of different treatments on the induction of acidic β-galactosidase activity, a marker of autophagy (FIG. 10A) was tested.

SCC4 cells [2] = assay: Protein acetylation in nuclear and cytoplasmic extracts, Western blot with anti-acetyllysine antibody; format: cell-based, human; details: 6 h
Text: (§1) FIG. 4 is an illustration of the HDAC inhibitory activity of 3 in the SCC4 cell line. FIG. 4A is an illustration of a western blot of nuclear and cytoplasmic extracts of SCC4 cells treated with vehicle (−), 1, or 3 alone or in combination, as indicated. The 55 kDa band corresponds to the molecular weight of tubulin. FIG. 4B illustrates a western blot probed with an antibody directed against acetylated histone H4 (AcH4) showing the effects of the treatments described in A on acetylation of histone H4. FIG. 4C illustrates western blots of the effects of treatments described in A on levels of total alpha-tubulin (left) and acetylated alpha-tubulin (right).
(§2) In preliminary experiments, TSA-inducible protein acetylation was analyzed in nuclear and cytoplasmic extracts of SCC4 cells treated for 6 h with 1, 3, or 1 and 3 and subsequently probed by Western blotting for protein acetylation using an anti-acetyllysine antibody. […] Effects of 3 on histone acetylation specifically, were confirmed by probing for acetylation of histone H4 (FIG. 4B). […] However, it was not clear whether this corresponded to enhanced expression or acetylation. […] This was confirmed by probing cytoplasmic fractions with an antibody that recognized α-tubulin (FIG. 4C). Calcitriol (1) had no effect on the acetylation of α-tubulin, and none of the treatments had any substantial effect on total α-tubulin expression (FIG. 4C).

SCC25 cells = assay: Antiproliferative activity in SCC25 cells; format: cell-based; details: 1 at 1 nM or 100 nM; 3 15 nM; combination 3 with 100 nM 1; FIG. 7B
Text: FIG. 7 is an illustration of the antiproliferative activities of 1 and 3, individually or in combination, in SCC4 cells (A) or in SCC25 cells (B) at the concentrations indicated.

SCC4 cells [3] = assay: Antiproliferative activity in SCC4 cells; details: 3 alone, data not shown
α-tubulin = assay: α-Tubulin acetylation in SCC4 cells, Western blot; format: cell-based, human; details: 3 15 nM; 36 or 39 10^−6 or 10^−7M; 6 h or 24 h, FIG. 6C
Text: as §1
FIG. 6 is a comparison of the HDAC inhibitory activities of 1, 3, 6, 36 or 39 as assessed by their effects on acetylation of alpha-tubulin. In A, SCC4 cells were incubated with vehicle or compound 1 (10^−6M), 3 (15 nM), 6 (10^−6M) and 36 (10^−6M), as indicated for 6 h and protein extracts were probed for total α-tubulin (Tub.) or acetylated α-tubulin (AcTub.) by Western blotting. Blots for acetylated alpha-tubulin and total alpha-tubulin are shown. In B, SCC4 cells were incubated with vehicle or compound 3 (15 nM), 6 (10^−6M) or 36 (10^−6M) as indicated for 6 h or 24 h and protein extracts were probed for acetylated α-tubulin (AcTub.) by Western blotting. In C, SCC4 cells were incubated with vehicle or compounds 3 (15 nM), 36 (10^−6 or 10^−7M) or 39 (10^−6 or 10^−7M) as indicated for 6 h or 24 h and protein extracts were probed for total α-tubulin (tub.) or acetylated α-tubulin (AcTub.) by Western blotting.
as §2
SCC4 cells were incubated with vehicle or compound as indicated for 6 h and cytoplasmic protein extracts were probed by Western blotting using a specific antibody for acetylated α-tubulin.

human VDR = target: T1, human VDR (Homo sapiens, UniProt P11473); assay: Reporter gene assay (VDRE-luciferase) in transiently transfected COS7 cells; format: cell-based
T1 construct: expressed in transfected cells; host or cells: COS7
T1 sequence (P11473 1-427): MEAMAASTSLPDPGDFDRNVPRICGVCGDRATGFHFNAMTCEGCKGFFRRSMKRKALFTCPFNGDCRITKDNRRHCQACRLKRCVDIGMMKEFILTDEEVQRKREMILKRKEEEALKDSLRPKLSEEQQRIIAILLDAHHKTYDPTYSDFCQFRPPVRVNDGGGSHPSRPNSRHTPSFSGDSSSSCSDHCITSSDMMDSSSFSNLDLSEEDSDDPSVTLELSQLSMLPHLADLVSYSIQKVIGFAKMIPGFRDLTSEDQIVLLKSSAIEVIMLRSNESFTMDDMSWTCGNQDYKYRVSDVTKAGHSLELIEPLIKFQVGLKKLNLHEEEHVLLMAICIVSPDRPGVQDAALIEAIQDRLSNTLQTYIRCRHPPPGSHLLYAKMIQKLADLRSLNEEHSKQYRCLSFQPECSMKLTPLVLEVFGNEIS
Experimental: FIG. 2 is an illustration of the vitamin D receptor agonist activity of 6 using a reporter gene assay in transiently transfected COS7 cells.
Hybrid molecule 6 was tested for calcitriol agonist activity using a reporter gene assay under standard conditions.^25,26 COS7 cells were transiently co-transfected with a plasmid expression vector for the human VDR, a plasmid vector expressing bacterial β-galactosidase from a constitutively active promoter (as an internal control for transfection efficiency), and a vector containing a luciferase reporter gene, under control of a previously described synthetic promoter composed of three high affinity VDREs (Vitamin D Response Elements) placed immediately upstream of a truncated promoter region from the herpes simplex virus thymidine kinase gene.^25 Cells were left overnight in the presence of DNA and transfection reagent (lipofectamine). The media were changed and cells were incubated in fresh media containing either vehicle (DMSO), 1 (100 nM), 3 (15 nM), 1 and 3 combined (100 nM/15 nM) or 6 (100 nM), and incubated a further 36 h.

histone H4 = assay: Histone H4 acetylation, Western blot; format: cell-based, human; details: SCC4 cells, 6 h
Text: as §1, §2

HDAC6 = HDAC6 (Homo sapiens, UniProt Q9UBN7); details: cited from earlier work
SCC4 cells [4] = assay: Immunocytochemical and morphological analysis (mitotic catastrophe); format: cell-based, human
Text: FIG. 12 is an illustration of the immunocytochemical analysis of the effects of 1, 3, or 1 and 3 combined on SCC4 cells (A). […] Both phenotypes are characteristics of mitotic catastrophe. The lower panels (B) show cytoplasmic bridges between SCC4 cells treated with 1 and 3, consistent with the formation of the tubulin bridges seen above in A.
Assembly into microtubules is regulated by acetylation. […] Previous studies have shown that microtubule stabilizing agents can induce mitotic catastrophe (ref. 30). […] The formation of intercellular microtubular structures was consistent with observations in the light microscope of numerous intercellular bridges in cells treated with both 1 and 3 (FIG. 12B, arrows), but not in other treatment groups (not shown).

Chain of HDAC6 (Q9UBN7 whole entry, species assumed): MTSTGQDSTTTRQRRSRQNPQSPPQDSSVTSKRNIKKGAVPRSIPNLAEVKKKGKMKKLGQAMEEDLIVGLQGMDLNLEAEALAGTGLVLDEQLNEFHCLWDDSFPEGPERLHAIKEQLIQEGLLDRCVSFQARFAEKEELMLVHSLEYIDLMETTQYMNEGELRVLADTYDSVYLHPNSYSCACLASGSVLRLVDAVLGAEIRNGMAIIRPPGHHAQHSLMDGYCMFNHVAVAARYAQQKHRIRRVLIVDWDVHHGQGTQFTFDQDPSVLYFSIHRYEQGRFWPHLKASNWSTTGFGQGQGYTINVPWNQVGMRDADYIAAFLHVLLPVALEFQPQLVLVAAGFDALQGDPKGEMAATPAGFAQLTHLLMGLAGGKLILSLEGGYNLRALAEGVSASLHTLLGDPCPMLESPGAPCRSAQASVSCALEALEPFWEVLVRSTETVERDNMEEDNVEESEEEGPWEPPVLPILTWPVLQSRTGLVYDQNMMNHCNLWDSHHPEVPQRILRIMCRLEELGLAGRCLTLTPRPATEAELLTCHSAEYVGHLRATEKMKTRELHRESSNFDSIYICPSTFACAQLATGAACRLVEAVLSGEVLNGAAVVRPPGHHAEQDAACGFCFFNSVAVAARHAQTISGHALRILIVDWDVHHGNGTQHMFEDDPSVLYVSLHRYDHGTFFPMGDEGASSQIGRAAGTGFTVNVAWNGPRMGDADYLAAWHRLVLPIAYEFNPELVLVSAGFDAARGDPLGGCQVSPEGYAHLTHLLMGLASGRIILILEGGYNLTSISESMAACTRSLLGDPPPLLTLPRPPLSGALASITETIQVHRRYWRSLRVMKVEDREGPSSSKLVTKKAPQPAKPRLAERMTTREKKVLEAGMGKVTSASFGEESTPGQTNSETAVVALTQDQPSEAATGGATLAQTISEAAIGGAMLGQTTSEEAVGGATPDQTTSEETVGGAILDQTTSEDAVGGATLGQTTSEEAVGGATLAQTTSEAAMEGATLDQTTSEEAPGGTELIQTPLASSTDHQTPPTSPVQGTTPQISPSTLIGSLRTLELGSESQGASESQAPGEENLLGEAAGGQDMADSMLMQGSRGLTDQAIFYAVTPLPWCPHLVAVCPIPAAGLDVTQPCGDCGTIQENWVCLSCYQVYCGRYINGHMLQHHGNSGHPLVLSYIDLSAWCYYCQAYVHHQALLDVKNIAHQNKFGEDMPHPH

SMILES: CC(/C=C/C(=O)NO)=C\[C@@H](C)C(=O)c1ccc(N(C)C)cc1 [compound 3, trichostatin A]
- acidic β-galactosidase staining (X-Gal, pH 4.0), cytochemical (SCC4 cells [1]): weak or relatively modest effects
- acetylation of a 55 kDa protein, likely tubulin (SCC4 cells [2]; cytoplasmic extracts): markedly enhanced
- acetylation of low molecular weight nuclear proteins (SCC4 cells [2]; nuclear extracts): markedly enhanced
- SCC25 proliferation / sensitivity (SCC25 cells): substantially less sensitive
- SCC4 proliferation (SCC4 cells [3]; 50 nM): completely inhibited
- cell death (SCC4 cells [3]; concentrations higher than 50 nM): substantial cell death
- levels of acetylated alpha-tubulin normalized for total alpha-tubulin (α-tubulin): Elevated levels
- reporter gene activity (calcitriol agonist activity) (human VDR; COS7, 36 h, 1 100 nM, 3 15 nM, 6 100 nM, not normalized): no substantial effect
- expression from the internal control plasmid (β-galactosidase) (human VDR; COS7 cells): modestly affects expression
- histone H4 acetylation (histone H4): markedly enhanced
- HDAC6 activity (HDAC6): can be blocked
- cell morphology (SCC4 cells [4]; FIG. 12): did not differ from control cells
- induction of mitotic catastrophe (SCC4 cells [4]; SCC4 cells): not 1 or 3 alone
